Earlier results, collected in patent US20250177407A1 (Closed Loop Medicine Ltd., priority 2023, published 2025).
Read-outs that look alike come from different tables or passages of the source. Marks after values point to notes of the source that are not given here.

How the values were obtained:
[1] = not given; remark: listed apart in the source
factor Xa activity = factor Xa activity (Homo sapiens, UniProt P00742)
[2] = tested on: patients with nonvalvular AF; settings: ROCKET-AF
[3] = not given; remark: listed apart in the source
[4] = not given; remark: listed apart in the source
[5] = not given; remark: listed apart in the source
patients with AF = settings: management of AF
[6] = clearance adjustment, comedication

Chain of factor Xa activity (P00742 235-488 limits assumed): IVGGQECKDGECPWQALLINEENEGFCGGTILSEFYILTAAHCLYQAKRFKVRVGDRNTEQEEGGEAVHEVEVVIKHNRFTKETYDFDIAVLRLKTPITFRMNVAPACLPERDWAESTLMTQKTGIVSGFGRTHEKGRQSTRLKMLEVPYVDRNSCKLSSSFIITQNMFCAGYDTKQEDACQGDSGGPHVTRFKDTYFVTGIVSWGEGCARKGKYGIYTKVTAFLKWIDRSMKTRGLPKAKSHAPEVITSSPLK
Chain of factor Xa activity (P00742 41-179 partner limits assumed): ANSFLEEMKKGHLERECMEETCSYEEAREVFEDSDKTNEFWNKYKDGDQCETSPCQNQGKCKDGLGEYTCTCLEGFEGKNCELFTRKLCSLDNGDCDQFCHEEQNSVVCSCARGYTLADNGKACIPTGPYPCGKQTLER

O=C(NC[C@H]1CN(c2ccc(N3CCOCC3=O)cc2)C(=O)O1)c1ccc(Cl)s1 [rivaroxaban]
interethnic differences in PK and PD characteristics (Caucasian, African-American, Hispanic, Japanese, Chinese patients (EMA)): no clinically relevant interethnic differences | higher exposure compared to other ethnicities (healthy Japanese subjects, on average (FDA)): 20-40% | increase in AUC compared with healthy subjects (mild (Child-Pugh A) hepatic impairment): 15% | increase in exposure (mild renal impairment (CrCl 50-79 mL/min)): 44% | increase in the effect-time curve AUC (moderate hepatic impairment): 159% | prothrombin time (moderate hepatic impairment): significant prolongation | increase in exposure (moderate renal impairment (CrCl 30-49 mL/min)): 52% | increase in exposure (severe renal impairment (CrCl<30 mL/min)): 64% | θCL/F, P-gp inhibitor ([1]; clearance adjustment, P-gp inhibitor comedication): 0.996 Proportion | θCL/F, VTE ≤72 hr ([1]; clearance adjustment, VTE prevention after hip or knee surgery, less than 72 hours): 1.04 Proportion | θCL/F, VTE >72 hr ([1]; clearance adjustment, VTE prevention after hip or knee surgery, more than 72 hours): 1.29 Proportion | θCL/F, ACS ([1]; clearance adjustment, acute coronary syndrome): 1.14 Proportion | θCL/F, CYP3A4 inducer [1, 6]: 1.3 Proportion | θCL/F, Medium CYP3A4 inhibitor [1, 6]: 0.863 Proportion | θCL/F, Strong CYP3A4 inhibitor [1, 6]: 0.978 Proportion | θCL/F, Weak CYP3A4 inhibitor [1, 6]: 0.939 Proportion | θCL/F, AF ([1]; clearance adjustment, stroke prevention in AF): 0.849 Proportion | θV/F, Age ([1]; covariate effect of age on V/F): −0.189 Power | θCL/F, Weight ([1]; covariate effect of body weight on CL/F): −0.278 Power | θV/F, Weight ([1]; covariate effect of body weight on V/F): 0.216 Power | θCL/F, CRCL ([1]; covariate effect of creatinine clearance on CL/F): 0.406 Power | θV/F, Sex ([1]; covariate effect of sex on V/F): 0.889 Proportion | ω^2CL/F ([1]; inter-individual variability): 0.167 Variance | ω^2CL/F, V/F ([1]; inter-individual variability): 0.0674 Covariance | ω^2Ka ([1]; inter-individual variability): 0.628 Variance | ω^2V/F ([1]; inter-individual variability): 0.0391 Variance | CL/F, apparent clearance ([1]; population PK estimate): 6.58 L/h | Ka, first-order absorption rate constant ([1]; population PK estimate): 0.821 h⁻¹ | V/F, apparent volume of distribution ([1]; population PK estimate): 62.5 L | D50 ([1]; relative bioavailability model): 14.4 mg | σ^2prop ([1]; residual variability): 0.203 Variance | slope of prothrombin time versus plasma concentration (prothrombin time; Esmueti et al. (2022), Fisherbrand reagent): 0.018 s/(μg/ L) | Hill (prothrombin time; Zhao et al. (2022)): 1.37 ^b | slope of prothrombin time versus plasma concentration (prothrombin time; Zhao et al. (2022)): 0.0018 ^b s/(μg/L) | Emax (factor Xa activity; Girgis et al. (2014)): 107% | Emax (factor Xa activity; Mueck et al. (2007)): 0.86 U/ml | Emax (factor Xa activity; Mueck et al. (2008b), KRS): 0.837 U/ml | Emax (factor Xa activity; Mueck et al. (2008b), day 1, HRS): 0.881 U/ml | Emax (factor Xa activity; Mueck et al. (2008b), steady state, HRS): 0.942 U/ml | FXa0 (second entry of the cell) (factor Xa activity; Tanigawa et al. (2013)): 0.928 U/mL | Hill (factor Xa activity; Tanigawa et al. (2013)): 1.16 | rate of fatal stroke [2]: 1.7 % per year | risk of intracranial bleeds [2]: 0.5% | plasma protein binding [3]: 92-95% | increase in drug level exposure (AUC) ([4]; CrCl = 30, relative to median CrCl of 69 for the RE-LY study data): 1.8 fold | increase in drug level exposure (AUC) ([4]; CrCl = 50, relative to median CrCl of 69 for the RE-LY study data): 1.3 fold | increase in drug level exposure (AUC) ([4]; South Asians compared to other ethnicities): ~26% increase in South Asians compared to | increase in drug level exposure (AUC) per year older ([4]; age, compared to 72 yr): 0.41% increase per year older compared to 72 yr | decrease in drug level exposure (AUC) ([4]; comedication PPIs): ~13% decrease | increase in drug level exposure (AUC) ([4]; comedication amiodarone): 12% increase | increase in drug level exposure (AUC) ([4]; comedication verapamil): 23% increase | increase in drug level exposure (AUC) ([4]; females compared to men): ~9% increase in females compared to men | decrease in Vd ([4]; haemoglobin above 14.3 g · dL^−1): by 4%/1 g · dL^−1 above 14.3 g · dL^−1 | effect of low weight on Cmax ([4]; in vivo): increase Cmax | increase in drug level exposure (AUC) ([4]; patients with heart failure): ~7% increase in patients with HF | increase in distribution volume (Vd) per kg above 80 kg ([4]; weight): in distribution volume (Vd) by 0.8% | bioavailability ([5]; 20 mg tablets, fasting, healthy subjects): approximately 66% | variability in drug plasma levels for a given dose ([5]; between patients): 6- to 10 fold | half-life ([5]; elderly): 11 to 13 h | half life ([5]; elderly patients): ~12 h | half-life ([5]; healthy volunteers): 5 to 9 h | fraction of absorbed drug eliminated unchanged via the kidney ([5]; human, in vivo): 30% | fraction of absorbed drug metabolised by hepatic CYP 3A4/5 and CYP-independent enzymes ([5]; human, in vivo): Approximately 60% | time to peak levels ([5]; once daily immediate release with food): 1 to 2 h | bioavailability ([5]; oral 2.5 and 10 mg tablets, not affected by food): 80-100% | time to peak concentration ([5]; oral administration): 2 to 4 h | half-life ([5]; population not specified): 5 to 9 h | half life ([5]; young patients): 5 to 9 h

CC(=O)CC(c1ccccc1)c1c(O)c2ccccc2oc1=O (stereo not shown) [warfarin]
rate of fatal stroke [2]: 2.2 % per year | reduction of stroke (patients with AF): about 60%
